Data on 1 substance can be found in patent US20220257758A1, “METHODS OF ADMINISTERING ANTI-SIGLEC-8 ANTIBODIES AND CORTICOSTEROIDS” (priority 2019, published 2022).

“Also recorded” adds a separate entry of the source.

Type in all cases: in vivo, human
The test system of data set [1] is patients with eosinophilic gastritis (EG) and/or eosinophilic gastroenteritis (EGE). As to the kind of experiment: Phase 2 study in EG and/or EGE: safety and tolerability. An excerpt: This Example describes results from a Phase 2 examining treatment of patients with eosinophilic gastritis (EG) and/or eosinophilic gastroenteritis (EGE) using a humanized, non-fucosylated IgG1 monoclonal anti-Siglec-8 antibody (HEKA). Specifically, this study evaluated the safety and tolerability of anti-Siglec-8 antibody in patients with EG and/or EGE.
(§1) 65 patients were enrolled in 3 arms. In the first arm, 22 patients received anti-Siglec-8 antibody (non-fucosylated IgG1 antibody HEKA) in the following doses: 0.3 mg/kg for first dose, and 1.0 mg/kg for second, third, and fourth doses (“low dose”). In the second arm, 22 patients received the anti-Siglec-8 antibody in the following doses: 0.3 mg/kg for first dose, 1.0 mg/kg for second dose, and 3.0 mg/kg for the third and fourth doses (“high dose”). Patients in the third arm received placebo. All doses were provided monthly.

The test system is the same in data set [2]. As to the kind of experiment: Phase 2 study in EG and/or EGE: Total Symptom Score (TSS) from PRO questionnaire.
Description: (§2) This study was a randomized, double-blind, placebo-controlled study. […] All patients reported an average weekly score of ≥3 (on a scale from 0-10), recorded for either abdominal pain, diarrhea and/or nausea on a Patient Reported Outcome (PRO) questionnaire during at least 2 out of 3 weeks of PRO collection. A minimum of four questionnaires were completed each qualifying week.
as §1
(§3) Secondary endpoints included the percentage of responders to treatment and change in symptoms as reported by PRO questionnaire (both comparing week 13-14 vs. baseline), as well as an exploratory assessment of comorbid eosinophilic esophagitis (EoE). Symptoms reported by the PRO questionnaire included abdominal pain, nausea, diarrhea, vomiting, fullness before finishing a meal, loss of appetite, abdominal cramping, and bloating. Each of the 8 symptoms was measured on a scale from 0 to 10 (with 80 total points possible). This questionnaire captured the most significant symptoms of EG/EGE. Treatment responder was defined as >75% reduction in tissue biopsy eosinophil counts and >30% reduction in Total Symptom Score (TSS) from the PRO questionnaire at weeks 13-14. These endpoints were designed to show (1) tissue eosinophil depletion, (2) symptom improvement, and (3) that these effects occurred in the same individuals.

Data set [3] relates to eosinophils per HPF observed in GI biopsies. As to the kind of experiment: Phase 2 study in EG and/or EGE: change in eosinophils per HPF in GI biopsies.
Description: as §2
Further, all patients either failed or had disease symptoms not adequately controlled by standard-of-care treatments for EG/EGE symptoms, which could include proton pump inhibitors (PPIs), systemic or topical corticosteroids, and/or diet, among others.
In addition, each patient was confirmed to have EG and/or EGE by esophagogastroduodenoscopy (EGD), as defined by eosinophilia of the gastric mucosa ([…] eosinophils/HPF in 5 HPFs) and/or eosinophilia of the duodenal mucosa (30 eosinophils/HPF in 3 HPFs) from the EGD performed during the screening period, without any other cause for the gastric eosinophilia (e.g., parasitic or other infection or malignancy). For more details, see ClinicalTrials.gov Identifier NCT03496571.
as §1
The primary endpoint was the percentage of change in eosinophils per HPF observed in GI biopsies before and after receiving treatment or placebo. Mean percent change in eosinophil counts was calculated by comparing count at week 14 of treatment versus baseline count.

Data set [4] has as its system patients with eosinophilic gastritis (EG) and/or eosinophilic gastroenteritis (EGE). Nature of the data set: Phase 2 study in EG and/or EGE: treatment responders. The procedure:
as §1, §3

Data set [5] shares this test system. Nature of the data set: Phase 2 open-label extension study: infusion-related reactions with corticosteroid premedication. The conditions noted are these: 58 patients to date; 80 mg oral prednisone 12-24 hours prior to first infusion, plus solumedrol, cetirizine, acetaminophen about 1 hour prior; 1 mg/kg first infusion then 3 mg/kg every 4 weeks. The procedure:
Approximately 60 patients are enrolled in this extension study, based on the maximum enrollment from a Phase 2 study. Patients who complete the Phase 2 study have the option to receive anti-Siglec-8 antibody in an open-label fashion.
1 mg/kg anti-Siglec-8 antibody (non-fucosylated IgG1 antibody HEKA) is administered for the first infusion, followed by a dose of 3 mg/kg administered every 4 weeks thereafter. Patients receive up to 8 infusions of anti-Siglec-8 antibody administered every 28(±3) days.
Prior to the first infusion of AK002, 80 mg oral prednisone is given 12-24 hours prior to infusions and solumedrol (100 mg IV), cetirizine (10 mg oral), and acetaminophen (975-1000 mg oral) are given about 1 hour prior to infusion.
In this ongoing extension study, corticosteroid has been administered 12-24 hours prior to each of the first anti-Siglec-8 antibody dose (as described above).

Data set [6] deals with patients with eosinophilic esophagitis (EoE). Nature of the data set: Phase 2 study: exploratory assessment of comorbid eosinophilic esophagitis (EoE). The procedure: as §1
as §3, with “These endpoints were designed to show (1) tissue eosinophil depletion, (2) symptom improvement, and (3) that these effects occurred in the same individuals.” left out

With “anti-Siglec-8 antibody: humanized, non-fucosylated IgG1 monoclonal anti-Siglec-8 antibody (HEKA); VH SEQ ID NO: 6, VL SEQ ID NO: 16; heavy chain SEQ ID NO: 75, light chain SEQ ID NO: 76”, the “other significant AEs” value in data set [1] (Phase 2 study) is on record as “no other significant adverse events (AEs) were observed”. The tolerability result in data set [1] (Phase 2 study) was “generally well tolerated”. In addition, the “IRRs that were mild to moderate” value in data set [1] (e.g. flushing, feeling of warmth, headache, nausea, dizziness) worked out at 95%. For the same substance, in data set [1] (patients receiving antibody), the “patients with at least 1 treatment-emergent adverse event (AE)” value is 91%. Besides, the “drug-related serious AE (number)” value in data set [1] (was an IRR, patient recovered within 24 hours with no further sequelae) is recorded as “One”. Besides, the “improvement across symptoms of the PRO questionnaire” value in data set [2] (8 symptoms, baseline to end of treatment) is on record as “improvement across all symptoms measured; also recorded: Improvements were observed across all symptoms”. For the same substance, in data set [2] (both treatment groups, baseline to weeks 13-14, p-value 0.0012), the “mean reduction in TSS” value came out at 54%. The “reduction in TSS” value in data set [2] (high dose arm, baseline to weeks 13-14) stood at 58%; in data set [2] (low dose arm, baseline to weeks 13-14) it was 49%. Besides, the improvements in symptoms result in data set [2] (on day 1 after the first infusion and maintained throughout the study) is “statistically significant improvements in symptoms”. For the same substance, the “patients with gastric and duodenal eosinophil counts of <30/HPF” value in data set [3] (37 out of 39 patients receiving antibody) is 95%. Moreover, the “mean reduction in eosinophil count” value in data set [3] (both treatment groups, baseline to weeks 13-14, p-value <0.0001) came out at 95%. Further, the “reduction in eosinophil count” value stood at 97% in data set [3] (high dose arm (0.3, 1.0, 3.0, 3.0 mg/kg monthly), baseline to weeks 13-14) and 95% in data set [3] (low dose arm (0.3, 1.0, 1.0, 1.0 mg/kg monthly), baseline to weeks 13-14). For the same substance, the percentage of responders in data set [4] (all treated patients, >75% reduction in tissue eosinophils and >30% reduction in TSS at weeks 13-14, p-value 0.0008) is 69%; in data set [4] (high dose arm, weeks 13-14), 70%; in data set [4] (low dose arm, weeks 13-14), 68%. Also, in data set [5], the IRRs observed entry is on record as “no IRRs have been observed”. Besides, in data set [6] (patients with EoE), the improvement in dysphagia result was “substantial improvement in dysphagia”. In addition, the “EoE patients showing <5 eosinophils per HPF” value in data set [6] (week 14 of treatment, 13 of 14 EoE patients) worked out at 93%.
